In assay [1] the target is T1, recombinant guanylate cyclase reporter cell line (Rattus norvegicus, UniProt P20595).
T1 construct: expressed in transfected cells; host or cells: CHO reporter cell line
T1 sequence (P20595 1-619): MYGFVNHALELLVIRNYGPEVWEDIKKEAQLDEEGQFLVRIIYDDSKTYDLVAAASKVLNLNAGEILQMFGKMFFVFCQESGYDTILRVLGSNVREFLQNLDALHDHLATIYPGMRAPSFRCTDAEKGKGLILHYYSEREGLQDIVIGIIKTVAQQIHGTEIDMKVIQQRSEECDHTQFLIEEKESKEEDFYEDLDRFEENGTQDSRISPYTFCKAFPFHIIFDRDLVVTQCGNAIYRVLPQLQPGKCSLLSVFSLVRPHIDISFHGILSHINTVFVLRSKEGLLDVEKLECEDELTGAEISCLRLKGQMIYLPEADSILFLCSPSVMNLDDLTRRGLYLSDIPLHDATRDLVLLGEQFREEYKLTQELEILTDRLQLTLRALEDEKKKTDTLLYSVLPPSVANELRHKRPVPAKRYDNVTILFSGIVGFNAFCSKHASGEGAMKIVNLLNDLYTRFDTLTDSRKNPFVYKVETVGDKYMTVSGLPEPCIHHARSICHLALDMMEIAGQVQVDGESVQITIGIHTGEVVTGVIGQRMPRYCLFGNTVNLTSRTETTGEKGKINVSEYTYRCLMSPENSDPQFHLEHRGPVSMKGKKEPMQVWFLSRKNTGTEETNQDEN
T1 sequence (P19686 1-690 partner): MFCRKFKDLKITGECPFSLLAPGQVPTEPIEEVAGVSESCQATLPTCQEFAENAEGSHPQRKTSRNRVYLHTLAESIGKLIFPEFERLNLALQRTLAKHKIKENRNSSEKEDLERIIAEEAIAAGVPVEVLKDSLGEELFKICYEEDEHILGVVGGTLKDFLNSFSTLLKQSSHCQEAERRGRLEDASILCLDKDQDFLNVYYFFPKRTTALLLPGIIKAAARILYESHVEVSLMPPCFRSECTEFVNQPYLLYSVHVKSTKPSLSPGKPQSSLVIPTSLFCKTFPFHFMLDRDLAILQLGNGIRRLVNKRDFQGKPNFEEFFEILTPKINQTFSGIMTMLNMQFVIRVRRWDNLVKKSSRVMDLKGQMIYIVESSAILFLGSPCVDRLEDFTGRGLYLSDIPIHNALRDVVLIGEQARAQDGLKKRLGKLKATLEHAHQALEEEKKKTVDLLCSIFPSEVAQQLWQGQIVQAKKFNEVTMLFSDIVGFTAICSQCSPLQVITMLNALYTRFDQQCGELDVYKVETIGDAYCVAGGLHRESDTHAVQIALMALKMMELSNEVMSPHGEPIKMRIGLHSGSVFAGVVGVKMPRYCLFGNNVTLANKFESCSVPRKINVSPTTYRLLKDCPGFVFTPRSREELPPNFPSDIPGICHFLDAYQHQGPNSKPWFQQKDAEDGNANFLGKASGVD
As to the kind of experiment: sGC-activating activity in the CHO reporter cell in vitro. Type of assay: cell-based. The protocol:
The cellular action of the compounds according to the invention is determined at a recombinant guanylate cyclase reporter cell line, as described in F. Wunder et al., Anal. Biochem. 339, 104-112 (2005).

The target of assay [2] is T2, soluble guanylate cyclase (sGC) (Rattus norvegicus, UniProt P20595).
T2 construct: made in house; host or cells: baculovirus/Sf9 insect cells
T2 sequence (P20595 1-619): T1 sequence (P20595 1-619)
T2 sequence (P19686 1-690 partner): T1 sequence (P19686 1-690 partner)
As to the kind of experiment: Activating action at the sGC enzyme in vitro (PPi detection, luciferase). Type of assay: biochemical. The conditions noted are these: for EC50: read-out: EC50 (concentration at 50% of maximum efficacy), activating action at the sGC enzyme. The protocol:
Soluble guanylate cyclase (sGC) converts on stimulation GTP into cGMP and pyrophosphate (PPi). PPi is detected with the aid of the assay described below. The signal produced in the assay increases as the reaction progresses and serves as a measure of the sGC enzyme activity under the given stimulation.
To carry out the assay, 29 μl of enzyme solution [0-10 nM soluble guanylate cyclase (prepared according to Honicka et al., J. Mol. Med. 77, 14-23 (1999)) in 50 mM TEA, 2 mM MgCl2, 0.1% BSA (fraction V), 0.005% Brij®, pH 7.5] are initially introduced into a microplate, and 1 μl of the substance to be tested (as a serially diluted solution in DMSO) is added. The mixture is incubated at room temperature for 10 min. Then 20 μl of detection mix [1.2 nM Firefly Luciferase (Photinus pyralis luciferase, Promega), 29 μM dehydroluciferin (prepared according to Bitler & McElroy, Arch. Biochem. Biophys. 72, 358 (1957)), 122 μM luciferin (Promega), 153 μM ATP (Sigma) and 0.4 mM DTT (Sigma) in 50 mM TEA, 2 mM MgCl2, 0.1% BSA (fraction V), 0.005% Brij®, pH 7.5] are added. The enzyme reaction is started by adding 20 μl of substrate solution [1.25 mM guanosine 5′-triphosphate (Sigma) in 50 mM TEA, 2 mM MgCl2, 0.1% BSA (fraction V), 0.005% Brij®, pH 7.5] and measured continuously in a luminometer. The extent of the stimulation by the substance to be tested can be determined relative to the signal of the unstimulated reaction.
The activation of heme-free guanylate cyclase is examined by addition of 25 μM of 1H-1,2,4-oxadiazolo[4,3-a]quinoxalin-1-one (ODQ) to the enzyme solution and subsequent incubation for 30 minutes and compared to the stimulation of the native enzyme.

`CC(CC(F)(F)F)C(C(=O)Nc1cccc(CC2(C(=O)O)CC2)c1)c1ccc(CN2N=C(c3ccccc3)OCC2=O)cc1` (single isomer, unassigned) [Example 160, 1-{3-[(5,5,5-trifluoro-3-methyl-2-{4-[(5-oxo-2-phenyl-5,6-dihydro-4H-1,3,4-oxadiazin-4-yl)methyl]phenyl}-pentanoyl)amino]benzyl}cyclopropanecarboxylic acid]: the “MEC (minimum effective concentration), sGC-activating activity in the CHO reporter cell” value (from here on “MEC … in the CHO reporter cell”) in assay [1] came out at 30 nM. In assay [2], the “MEC (minimum effective concentration), activating action at the sGC enzyme” value is 3.4 nM and the EC50 was 0.035 µM.

Consider `O=C(O)CCc1cccc(NC(=O)C(c2ccc(Cn3nnc4ccccc4c3=O)cc2)C2CCCC2)c1` (racemic) [Example 21, 3-{3-[(cyclopentyl{4-[(4-oxo-1,2,3-benzotriazin-3(4H)-yl)methyl]phenyl}acetyl)amino]phenyl}-propanoic acid], for which the “MEC … in the CHO reporter cell” value in assay [1] is reported as 30 nM.

Regarding `C[C@@H]([C@@H](C(=O)Nc1cccc(CC2(C(=O)O)CC2)c1)c1ccc(CN2Cc3c(F)cccc3C2=O)cc1)C(F)(F)F` [Example 220], in assay [1], the “MEC … in the CHO reporter cell” value was found to be 0.3 nM. In assay [2], the “MEC (minimum effective concentration), activating action at the sGC enzyme” value was determined as 2 nM and the EC50 turned out to be 0.075 µM.

As for `Cc1c(CCC(=O)O)cccc1NC(=O)C(c1ccc(CN2CCN(c3cccc(Cl)c3)C2=O)cc1)C1CCCC1` (racemic) [Example 26, 3-(3-{[(4-{[3-(3-chlorophenyl)-2-oxoimidazolidin-1-yl]methyl}phenyl)(cyclopentyl)acetyl]amino}-2-methylphenyl)propanoic acid], the “MEC … in the CHO reporter cell” value in assay [1] turned out to be 300 nM.

In the case of `O=C(O)c1ccc(CNC(=O)C(c2ccc(CN3N=C(c4ccccc4)OCC3=O)cc2)C2CCCC2)cc1` (single isomer, unassigned; ent-4) [Example 38, ent-4-{[(Cyclopentyl{4-[(5-oxo-2-phenyl-5,6-dihydro-4H-1,3,4-oxadiazin-4-yl)methyl]phenyl}acetyl)amino]methyl}benzenecarboxylic acid], the “MEC … in the CHO reporter cell” value in assay [1] is recorded as 30 nM.

Take `O=C(O)CCc1ccc(Cl)c(NC(=O)C(c2ccc(CN3N=C(c4ccccc4)OCC3=O)cc2)C2CCCC2)c1` (centres unmarked) [Example 187, 3-{4-chloro-3-[(cyclopentyl{4-[(5-oxo-2-phenyl-5,6-dihydro-4H-1,3,4-oxadiazin-4-yl)methyl]-phenyl}acetyl)amino]phenyl}propanoic acid]: the “MEC … in the CHO reporter cell” value in assay [1] was 1 nM.

Regarding `CC(C)C(C(=O)Nc1ccc(CCC(=O)O)cc1)c1ccc(CN2N=C(c3ccccc3)OCC2=O)cc1` (single isomer, unassigned) [Example 106, 3-{4-[(3-mcthyl-2-{4-[(5-oxo-2-phcny1-5,6-dihydro-4H-1,3,4-oxadiazin-4-yl)mcthyl]phenyl}butanoyl)-amino]phcnyl}propanoic acid], the “MEC … in the CHO reporter cell” value in assay [1] turned out to be 10 nM.

In the case of `Cc1c(CCC(=O)O)cccc1NC(=O)C(c1ccc(Cn2nc(-c3ccccc3)oc2=O)cc1)C1CCCC1` (racemic) [Example 30, 3-{3-[(cyclopentyl{4-[(2-oxo-5-phenyl-1,3,4-oxadiazol-3(2H)-yl)methyl]phenyl}acetyl)amino]-2-methylphenyl}propanoic acid], the “MEC … in the CHO reporter cell” value in assay [1] is reported as 30 nM.

As for `CC(C)C(C(=O)Nc1cccc(CCC(=O)O)c1)c1ccc(CN2N=C(c3ccccc3)OCC2=O)cc1` (single isomer, unassigned) [Example 105, 3-{3-[(3-mcthyl-2-{4-[(5-oxo-2-phcnyl-5,6-dihydro-4H-l,3,4-oxadiazin-4-yl)mcthyl]phenyl}butanoyl)-amino]phcnyl}propanoic acid], the “MEC … in the CHO reporter cell” value in assay [1] came to 10 nM.

As for `CCC(C)C(C(=O)Nc1cccc(CCC(=O)O)c1)c1ccc(CN2N=C(c3ccccc3)OCC2=O)cc1` (single isomer, unassigned) [Example 62, 3-{3-[(3-Methyl-2-{4-[(5-oxo-2-phenyl-5,6-dihydro-4H-1,3,4-oxadiazin-4-yl)methyl]-phenyl}pentanoyl)amino]phenyl}propanoic acid], the “MEC … in the CHO reporter cell” value in assay [1] is recorded as 3 nM.

As for `O=C(O)CC[C@H]1CC[C@H](NC(=O)C(c2ccc(CN3N=C(c4ccccc4)OCC3=O)cc2)C2CCCC2)CC1` (single isomer, unassigned) [Example 118, 3-{trans-4-[(cyclopcntyl{4-[(5-oxo-2-phcnyl-5,6-dihydro-4H-1,3,4-oxadiazin-4-yl)mcthyl]phcnyl}acetyl)-amino]cyclohcxyl}propanoic acid], the “MEC … in the CHO reporter cell” value in assay [1] stood at 30 nM.

For the molecule `O=C(O)c1ccc(CNC(=O)C(c2ccc(Cn3nc(-c4ccc(Cl)cc4)c4ccccc4c3=O)cc2)C2CCCC2)nc1` (racemic) [Example 11, 6-({[(4-{[4-(4-chlorophenyl)-1-oxophthalazin-2(1H)-yl]-methyl}phenyl)(cyclopentyl)acetyl]amino}methyl)-pyridine-3-carboxylic acid], in assay [1], the “MEC … in the CHO reporter cell” value is recorded as 300 nM.

Take `O=C(O)CCc1cccc(NC(=O)C(c2ccc(Cn3nc(-c4ccccc4)oc3=O)cc2)C2CCCC2)c1` (racemic) [Example 22]: the “MEC … in the CHO reporter cell” value in assay [1] came out at 300 nM.

As for `COCC(C)C(C(=O)Nc1cccc(CCC(=O)O)c1C)c1ccc(CN2N=C(c3ccccc3)OCC2=O)cc1` (centres unmarked) [Example 3, 3-{3-[(4-Methoxy-3-methyl-2-{4-[(5-oxo-2-phenyl-5,6-dihydro-4H-1,3,4-oxadiazin-4-yl)-methyl]phenyl}butanoyl)amino]-2-methylphenyl}propanoic acid], the “MEC … in the CHO reporter cell” value in assay [1] is recorded as 300 nM.

Consider `Cc1c(CCC(=O)O)cccc1NC(=O)C(c1ccc(Cn2nnc3ccccc3c2=O)cc1)C1CCCC1` (racemic) [Example 29, 3-{3-[(cyclopentyl{4-[(4-oxo-1,2,3-benzotriazin-3(4H)-yl)methyl]phenyl}acetyl)amino]-2-methyl-phenyl}propanoic acid], for which the “MEC … in the CHO reporter cell” value in assay [1] is 30 nM.

In the case of `O=C(O)c1ccc(CNC(=O)C(c2ccc(Cn3nc(-c4ccc(Cl)cc4)c4ccccc4c3=O)cc2)C2CCCC2)cc1` (racemic) [Example 1, 4-({[(4-{[4-(4-Chlorophenyl)-1-oxophthalazin-2(1H)-yl]methyl}phenyl)(cyclopentyl)acetyl]-amino}methyl)benzenecarboxylic acid], the “MEC … in the CHO reporter cell” value in assay [1] is recorded as 10 nM.

These data come from patent US8987256B2, “Oxo-heterocyclic substituted carboxylic acid derivatives and the use thereof” (Bayer Intellectual Property GmbH, priority 2008, dated 2015).
